In a compilation of properties of binary mixtures (doi:10.1016/j.molliq.2020.112489):

Assay: xn = mol fraction of the nth substance listed
Conditions: 101 kPa

Cn1cc[n+](CCO)c1.O=S(=O)([O-])C(F)(F)C(F)(F)C(F)(F)C(F)(F)F + O
Conditions | electrical conductivity, 298.15 K [S/m] | viscosity, 298.15 K [mPa·s] | viscosity, 308.15 K [mPa·s] | viscosity, 318.15 K [mPa·s]
x1 = 0.0178 | 4.26 | 2.036 | 1.632 | 1.344
x1 = 0.0195 | 4.4 | 2.133 | 1.689 | 1.381
x1 = 0.0212 | 4.52 | 2.326 | 1.847 | 1.517
x1 = 0.0232 | – | – | 1.972 | –
x1 = 0.0253 | 4.75 | 2.66 | 2.104 | 1.719
x1 = 0.0274 | – | – | 2.2 | 1.77
x1 = 0.0297 | 4.91 | 3.09 | 2.42 | 1.975
x1 = 0.0321 | 4.97 | 3.3 | 2.6 | –
x1 = 0.0348 | 5 | 3.56 | 2.78 | 2.227
x1 = 0.0376 | 5.1 | 3.7 | 2.87 | 2.274
x1 = 0.0405 | 5.1 | 4.19 | 3.25 | 2.58
x1 = 0.0438 | 5.2 | 4.43 | – | –
x1 = 0.0474 | 5.2 | 4.87 | 3.73 | 2.95
x1 = 0.0511 | – | – | 4.07 | 3.2
x1 = 0.0551 | 5.2 | 5.75 | 4.36 | 3.42
x1 = 0.0596 | – | – | 4.76 | –
x1 = 0.0644 | 5.1 | 6.82 | – | 3.98
x1 = 0.07 | 5.1 | 7.66 | – | 4.42
x1 = 0.0756 | 5 | 8.21 | – | 4.67
x1 = 0.0824 | 4.88 | 9.23 | 6.8 | 5.16
x1 = 0.0899 | 4.73 | 10.36 | – | 5.75
x1 = 0.0983 | – | – | 8.34 | –
x1 = 0.1075 | 4.31 | 12.91 | 9.29 | 6.93
x1 = 0.1178 | 4.05 | 14.88 | 10.63 | 7.86
x1 = 0.1302 | 3.73 | 16.91 | – | –
x1 = 0.1441 | 3.39 | 19.81 | – | 10.06
x1 = 0.1621 | 2.98 | 23.25 | 16.05 | 11.56
x1 = 0.1816 | – | – | 18.72 | 13.38
x1 = 0.2068 | 2.13 | 32.1 | – | 15.23
x1 = 0.2329 | 1.74 | 38.8 | 25.7 | –
x1 = 0.2751 | 1.26 | 50.6 | 32.8 | 22.44
x1 = 0.3277 | 0.85 | 63.8 | 40.6 | 27.4
x1 = 0.3954 | 0.52 | 87.1 | – | 35.4
x1 = 0.5075 | 0.241 | 133.7 | 79.6 | 50.5
x1 = 0.6777 | – | – | 143.5 | 86.8
x1 = 1 | 0.033 | 832 | 411 | 224

CC[n+]1ccn(C)c1.O=C([O-])C(F)(F)C(F)(F)C(F)(F)C(F)(F)F + O
viscosity [mPa·s]
Conditions | 298.15 K | 308.15 K | 318.15 K
x1 = 0.0222 | – | 2.016 | –
x1 = 0.0264 | 2.88 | 2.221 | 1.773
x1 = 0.0311 | 3.36 | – | 2.036
x1 = 0.0364 | 3.86 | 2.91 | 2.271
x1 = 0.0428 | 4.62 | – | 2.64
x1 = 0.0496 | 5.3 | 3.92 | 3.01
x1 = 0.0581 | 5.96 | 4.37 | 3.35
x1 = 0.067 | 6.84 | 4.93 | 3.7
x1 = 0.0727 | 7.23 | 5.22 | 3.93
x1 = 0.0857 | 8.38 | – | 4.5
x1 = 0.1009 | – | 7.34 | 5.4
x1 = 0.133 | 12.96 | 9.04 | 6.58
x1 = 0.1458 | 13.63 | – | –
x1 = 0.1625 | 14.99 | 10.35 | –
x1 = 0.1788 | 16.31 | 11.24 | 8.1
x1 = 0.201 | 17.94 | – | 8.85
x1 = 0.2367 | – | 14.29 | 10.22
x1 = 0.262 | 22.43 | – | 10.88
x1 = 0.3007 | 25.2 | – | 12.16
x1 = 0.4265 | – | 24.3 | 17.06
x1 = 0.7012 | 73.6 | 46.9 | 31.8
x1 = 1 | 107.5 | 65.9 | 43.1
